The values below are quoted from earlier work in patent US12421279B2, “Cyclic peptide antiviral agents and methods using same” (priority 2016, dated 2025).

As a reminder, the Kd is the equilibrium constant for the complex coming apart. In general, IC50 refers to the concentration needed to halve the response being measured.

Data set [1] has as its system viruses pseudotyped with VSV-G. To be noted: background; cited from earlier work.
Another data set has as its target monomeric gp120 (Human immunodeficiency virus type 1 group M subtype B, UniProt P35961). Particulars: background; cited from earlier work.
For the next data set, the system named is tissue explants model. Particulars: concentrations up to 100 μM; cited from earlier work.
In data set [2] the test system is subtype A, B and C isolates. Particulars: read-out: IC50 range, neutralizes viral infection by subtype A; cited from earlier work.

In the case of “(S)-4-((S)-2-((S)-2-((2S,4S)-1-(L-arginyl-L-isoleucyl-L-asparaginyl-L-asparaginyl-L-alloisoleucyl)-4-(4-ferrocenyl-1H-1,2,3-triazol-1-yl)pyrrolidine-2-carboxamido)-3-(1H-indol-3-yl) propanamido)-3-hydroxypropanamido)-5-(((S)-1-(((S)-1-(((S)-1-amino-4-(methylthio)-1-oxobutan-2-yl)amino)-4-(methylthio)-1-oxobutan-2-yl)amino)-1-oxopropan-2-yl)amino)-5-oxopentanoic acid [HNG156]”, in data set [1], the “neutralization of VSV-G pseudotyped viruses” value was “not viruses pseudotyped with VSV-G”. Moreover, the equilibrium dissociation constant (Kd) on monomeric gp120 was 7 nM. Moreover, the toxicity result in the data set with tissue explants model is recorded as “no detectable toxicity”. Besides, the IC50 in data set [2] was 80 to 62500 nM.
